# Tests used:
# [1] = test system: Methicillin-resistant S. aureus N315; assay: In vitro infectivity assay (MIC), Exp. Ex. 2-1; format: cell-based, Staphylococcus aureus; conditions: Gram-positive, microdilution, MIC after 24 h
# Method: (§1) The antibacterial activities were measured based on broth dilution techniques of international standards (Clinical Laboratory Standards Institute: CLSI). The activities were shown by minimum inhibitory concentrations (MICs) determined by inoculating the above-mentioned strains at a concentration of about 10^5 […] into Mueller-Hinton broth (manufactured by Difco) containing 0.85% NaCl in 96-well microplates and incubating the plates at 35° C. for 24 hours. Measurement was carried out three times.
# (§2) The antibacterial activities of the compounds of the present invention against various strains such as vancomycin-resistant enterococci (VRE), vancomycin intermediate-resistant Staphylococcus aureus (VISA), methicillin-resistant Staphylococcus aureus (MRSA), and methicillin-sensitive Staphylococcus aureus (MSSA) were examined. Of the bacteria used in MIC measurement in this test example, clinical bacteria of MRSA (OM481 strain and OM584 strain) were supplied from Okayama University Hospital (Japan). An MRSA strain N315, a vancomycin intermediate-resistant Staphylococcus aureus (VISA) strain Mu50, and a methicillin-sensitive Staphylococcus aureus (MSSA) strain FDA 209P were used as controls. Vancomycin-resistant enterococcus (VRE) strains NCTC 12201 and FN-1 were supplied from the National Institute of Infectious Disease (Japan).
# [2] = test system: Methicillin-resistant S. aureus COL; assay: In vitro infectivity assay (MIC), Exp. Ex. 2-1; format: cell-based, Staphylococcus aureus; conditions: Gram-positive, microdilution, MIC after 24 h
# Method: as §1, §2
# [3] = test system: Methicillin-resistant S. aureus OM481; assay: In vitro infectivity assay (MIC), Exp. Ex. 2-1; format: cell-based, Staphylococcus aureus; conditions: Gram-positive, microdilution, MIC after 24 h
# Method: as §1, §2
# [4] = test system: Methicillin-resistant S. aureus OM584; assay: In vitro infectivity assay (MIC), Exp. Ex. 2-1; format: cell-based, Staphylococcus aureus; conditions: Gram-positive, microdilution, MIC after 24 h
# Method: as §1, §2
# [5] = test system: Methicillin sensitive S. aureus 209P; assay: In vitro infectivity assay (MIC), Exp. Ex. 2-1; format: cell-based, Staphylococcus aureus; conditions: Gram-positive, microdilution, MIC after 24 h
# Method: as §1, §2
# [6] = test system: Vancomycin intermediate-resistant Staphylococcus aureus Mu50; assay: In vitro infectivity assay (MIC), Exp. Ex. 2-1; format: cell-based; conditions: Gram-positive, microdilution, MIC after 24 h
# Method: as §1, §2
# [7] = test system: Pseodomonas aeruginosa PAOI; assay: Antibacterial activity (MIC) against Gram-negative strains, microdilution; format: cell-based; conditions: MIC after 24 h
# Method: as §1
# Escherichia coli K-12 = assay: as above; format: cell-based; conditions: for MIC (Gram-nagative) K-12: MIC after 24 h
# Method: as §1
# [8] = test system: Streptococcus pneumoniae R6; assay: In vitro infectivity assay (MIC), Exp. Ex. 2-1; format: cell-based; conditions: Gram-positive; microdilution, MIC after 24 h
# [9] = test system: Vancomycin-resistant enterococci FN-1; assay: In vitro infectivity assay (MIC), Exp. Ex. 2-1; format: cell-based; conditions: Gram-positive; microdilution, MIC after 24 h
# Method: as §1, §2
# [10] = test system: Vancomycin-resistant enterococci NCTC 12201; assay: In vitro infectivity assay (MIC), Exp. Ex. 2-1; format: cell-based; conditions: Gram-positive; microdilution, MIC after 24 h
# Method: as §1, §2
# E. coli DNA gyrase = molecular target: T1, E. coli DNA gyrase (Escherichia coli, UniProt P0AES4+P0AES6); assay: DNA gyrase inhibition (supercoiling kit), Exp. Ex. 2-2; format: biochemical; conditions: supercoiling activity, 37° C., 30 minutes; read-out: IC50 (E. coli DNA gyrase inhibitions)
# T1 construct: purchased John Innes Enterprises #K0001
# T1 sequence (P0AES4 whole entry, one chain of several): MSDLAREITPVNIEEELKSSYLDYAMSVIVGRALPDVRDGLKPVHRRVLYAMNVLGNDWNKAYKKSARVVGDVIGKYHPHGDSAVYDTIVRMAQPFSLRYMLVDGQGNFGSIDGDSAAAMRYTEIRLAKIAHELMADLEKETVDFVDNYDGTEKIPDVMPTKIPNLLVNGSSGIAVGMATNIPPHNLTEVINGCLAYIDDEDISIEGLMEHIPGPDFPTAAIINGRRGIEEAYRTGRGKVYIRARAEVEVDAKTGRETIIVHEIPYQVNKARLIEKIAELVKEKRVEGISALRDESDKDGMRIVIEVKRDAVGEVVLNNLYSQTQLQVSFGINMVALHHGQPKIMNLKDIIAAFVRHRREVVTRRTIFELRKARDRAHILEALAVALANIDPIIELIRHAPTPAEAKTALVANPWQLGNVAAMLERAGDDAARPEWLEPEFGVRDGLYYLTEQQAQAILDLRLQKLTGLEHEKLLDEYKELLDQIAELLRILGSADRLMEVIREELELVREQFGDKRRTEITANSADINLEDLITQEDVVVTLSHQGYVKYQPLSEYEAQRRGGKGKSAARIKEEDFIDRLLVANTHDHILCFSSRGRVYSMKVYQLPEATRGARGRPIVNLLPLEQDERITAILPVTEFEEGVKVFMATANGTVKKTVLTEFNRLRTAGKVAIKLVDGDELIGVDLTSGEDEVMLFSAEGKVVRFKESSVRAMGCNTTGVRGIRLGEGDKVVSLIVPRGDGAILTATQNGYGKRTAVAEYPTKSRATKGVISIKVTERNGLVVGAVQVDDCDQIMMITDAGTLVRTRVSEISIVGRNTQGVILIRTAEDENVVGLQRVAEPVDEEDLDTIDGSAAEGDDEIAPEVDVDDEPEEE
# Method: As a kit for measurement of DNA gyrase of Escherichia coli, a product purchased from John Innes Enterprises (Gyrase Supercoiling assay kit #K0001) was used. Relaxed DNA was modified with gyrase into supercoiled DNA, and reaction products were separated by electrophoresis depending on the sizes of the molecular weights to examine anti-gyrase effects (IC50). 1 unit (1 U) of DNA gyrase and […] of relaxed pBR322 DNA were added to […] of the reaction solution, and the mixture was allowed to react at 37° C. for 30 minutes in the presence of 35 mM Tris-HCl (pH 7.5), 24 mM KCl, 4 mM MgCl2, 2 mM DTT, 1.8 mM spermidine, 1 mM ATP, 6.5% (w/v) glycerol, and 0.1 mg/ml BSA. The reactions were stopped using […] of a reaction stop solution (40% sucrose, 100 mM Tris-HCl (pH 7.5), 1 mM EDTA, 0.5 mg/ml bromophenol blue).
# [11] = molecular target: T2, Escherichia coli Topoisomerase IV (Escherichia coli, UniProt P0AFI2+P20083); assay: Topoisomerase IV inhibition (decatenation kit), Exp. Ex. 2-3; format: biochemical; conditions: decatenation of kDNA, 37° C., 30 minutes; read-out: IC50 (E. coli topoisomerase IV inhibitions)
# T2 construct: purchased John Innes Enterprises
# T2 sequence (P20083 whole entry): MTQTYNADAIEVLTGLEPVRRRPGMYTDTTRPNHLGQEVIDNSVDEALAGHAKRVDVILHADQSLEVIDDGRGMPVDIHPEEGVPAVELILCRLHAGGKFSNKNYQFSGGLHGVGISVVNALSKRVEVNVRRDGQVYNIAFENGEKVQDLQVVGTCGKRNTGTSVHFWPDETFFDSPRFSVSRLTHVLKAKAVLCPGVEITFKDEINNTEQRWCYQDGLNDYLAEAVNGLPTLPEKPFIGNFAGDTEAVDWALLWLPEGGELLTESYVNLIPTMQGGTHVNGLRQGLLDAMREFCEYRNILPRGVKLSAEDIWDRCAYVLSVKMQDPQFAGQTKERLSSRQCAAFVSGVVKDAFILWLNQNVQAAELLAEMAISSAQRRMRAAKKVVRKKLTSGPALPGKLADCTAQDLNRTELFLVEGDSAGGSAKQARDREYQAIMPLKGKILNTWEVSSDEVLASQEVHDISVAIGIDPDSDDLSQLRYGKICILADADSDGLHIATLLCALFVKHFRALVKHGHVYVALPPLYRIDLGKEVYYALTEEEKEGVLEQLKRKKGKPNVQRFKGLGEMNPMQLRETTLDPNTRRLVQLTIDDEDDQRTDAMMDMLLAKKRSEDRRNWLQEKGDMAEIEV
# T2 sequence (P0AFI2 whole entry): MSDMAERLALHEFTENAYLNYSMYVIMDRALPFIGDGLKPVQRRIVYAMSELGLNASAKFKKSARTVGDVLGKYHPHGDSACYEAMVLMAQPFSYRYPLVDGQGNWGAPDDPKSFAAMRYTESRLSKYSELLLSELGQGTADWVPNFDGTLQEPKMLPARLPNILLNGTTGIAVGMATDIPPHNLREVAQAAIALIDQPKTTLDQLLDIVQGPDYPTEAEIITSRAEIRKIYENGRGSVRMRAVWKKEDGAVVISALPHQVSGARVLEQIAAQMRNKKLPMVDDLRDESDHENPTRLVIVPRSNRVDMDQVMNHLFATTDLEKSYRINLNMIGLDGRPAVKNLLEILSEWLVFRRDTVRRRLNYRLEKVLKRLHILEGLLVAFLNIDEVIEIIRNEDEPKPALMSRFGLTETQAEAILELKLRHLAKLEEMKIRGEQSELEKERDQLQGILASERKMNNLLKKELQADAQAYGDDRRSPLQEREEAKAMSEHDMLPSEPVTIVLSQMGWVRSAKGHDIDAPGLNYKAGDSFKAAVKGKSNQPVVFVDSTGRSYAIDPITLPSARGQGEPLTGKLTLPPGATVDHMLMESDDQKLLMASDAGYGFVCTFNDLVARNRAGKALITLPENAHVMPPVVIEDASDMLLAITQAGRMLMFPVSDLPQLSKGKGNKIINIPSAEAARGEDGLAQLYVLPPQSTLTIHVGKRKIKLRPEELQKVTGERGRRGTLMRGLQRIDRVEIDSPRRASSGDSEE
# Method: (§3) Staphylococcus aureus Topoisomerase IV and Escherichia coli Topoisomerase IV were purchased from John Innes Enterprises. 1 unit of topoisomerase IV was cultured with 200 ng of kinetoplast DNA (kDNA) in 30 L of a reaction solution at 37° C. for 30 minutes under the conditions of 50 mM Tris-HCl (pH 7.5) (S. aureus)/50 mM HEPES-KOH (pH 7.6) (E. coli), 5 mM MgCl2 (S. aureus)/5 mM magnesium acetate (E. coli), 350 mM potassium glutamate (S. aureus)/100 mM potassium glutamate (E. coli), 5 mM dithiotheri (S. aureus)/10 mM dithiotheri (E. coli), 1.5 mM ATP (S. aureus)/1 mM ATP (E. coli), and 40% (w/v) glycerol. The reactions were stopped by adding 8 L of a reaction stop solution (40% sucrose, 100 mM Tris.HCl (pH 7.5), 1 mM EDTA, 0.5 mg/ml bromophenol blue). Agarose gel (1.0%) was poured into TAE (40 mM Tris acetate, 2 mM EDTA).
# [12] = molecular target: T3, Staphylococcus aureus Topoisomerase IV (Staphylococcus aureus, UniProt P0C1S7+P0C1U9); assay: as above; format: biochemical; conditions: decatenation of kDNA, 37° C., 30 minutes; read-out: IC50 (S. aureus topoisomerase IV inhibitions)
# T3 construct: purchased John Innes Enterprises
# T3 sequence (P0C1U9 whole entry): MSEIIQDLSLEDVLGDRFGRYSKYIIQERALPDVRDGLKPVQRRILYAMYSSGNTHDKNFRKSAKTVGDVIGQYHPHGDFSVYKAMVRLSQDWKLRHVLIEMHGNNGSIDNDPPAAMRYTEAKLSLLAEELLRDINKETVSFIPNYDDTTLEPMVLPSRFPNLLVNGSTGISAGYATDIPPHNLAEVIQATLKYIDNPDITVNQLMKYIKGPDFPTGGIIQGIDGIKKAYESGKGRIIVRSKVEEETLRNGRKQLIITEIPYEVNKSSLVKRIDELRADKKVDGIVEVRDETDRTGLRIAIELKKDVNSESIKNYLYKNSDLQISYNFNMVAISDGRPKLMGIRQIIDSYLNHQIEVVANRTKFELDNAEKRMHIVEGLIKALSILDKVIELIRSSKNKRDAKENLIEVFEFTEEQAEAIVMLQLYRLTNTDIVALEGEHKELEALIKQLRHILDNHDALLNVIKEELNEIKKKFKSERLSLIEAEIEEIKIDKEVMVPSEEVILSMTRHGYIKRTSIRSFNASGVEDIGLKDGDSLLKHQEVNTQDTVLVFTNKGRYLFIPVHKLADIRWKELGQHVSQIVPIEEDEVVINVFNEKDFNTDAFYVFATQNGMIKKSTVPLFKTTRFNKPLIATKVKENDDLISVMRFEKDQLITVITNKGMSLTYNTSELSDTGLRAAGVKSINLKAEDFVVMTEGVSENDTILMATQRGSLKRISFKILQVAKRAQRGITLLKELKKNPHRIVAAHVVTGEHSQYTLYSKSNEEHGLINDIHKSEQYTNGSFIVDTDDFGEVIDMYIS
# T3 sequence (P0C1S7 whole entry): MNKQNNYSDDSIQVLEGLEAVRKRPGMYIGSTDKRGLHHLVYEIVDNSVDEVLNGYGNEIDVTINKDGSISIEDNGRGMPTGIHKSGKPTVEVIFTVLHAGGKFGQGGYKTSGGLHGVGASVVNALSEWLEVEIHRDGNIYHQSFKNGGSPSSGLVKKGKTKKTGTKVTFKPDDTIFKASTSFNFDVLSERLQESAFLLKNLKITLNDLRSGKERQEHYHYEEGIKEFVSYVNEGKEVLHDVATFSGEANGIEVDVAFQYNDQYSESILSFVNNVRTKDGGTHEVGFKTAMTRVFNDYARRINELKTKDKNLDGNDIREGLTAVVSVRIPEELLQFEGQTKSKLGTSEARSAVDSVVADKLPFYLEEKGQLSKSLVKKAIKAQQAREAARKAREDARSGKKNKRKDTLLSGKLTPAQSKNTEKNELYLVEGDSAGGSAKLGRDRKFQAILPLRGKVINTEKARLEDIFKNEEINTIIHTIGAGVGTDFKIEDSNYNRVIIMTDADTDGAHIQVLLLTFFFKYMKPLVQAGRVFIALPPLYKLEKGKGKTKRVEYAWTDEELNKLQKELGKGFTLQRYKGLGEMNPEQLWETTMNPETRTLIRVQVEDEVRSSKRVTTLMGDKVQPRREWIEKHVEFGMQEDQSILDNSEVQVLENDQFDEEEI
# Method: as §3
Molecule,MIC MRSA N315 [1],MIC MRSA COL [2],MIC MRSA OM481 [3],MIC MRSA OM584 [4],MIC MSSA 209P [5],MIC S. Pneumoniae R6 [8],MIC VISA Mu50 [6],MIC VRE FN-1 [9],MIC VRE NCTC 12201 [10],MIC (Gram-nagative) PAO1 [7],MIC (Gram-nagative) K-12 (Escherichia coli K-12),IC50 (E. coli DNA gyrase),IC50 [11],IC50 [12],further results
"CO[C@@H]1[C@@H](OC(N)=O)[C@@H](O)[C@H](Oc2ccc3c(O)c(NC(=O)c4ccc(O)c(CC=C(C)C)c4)c(=O)oc3c2C)OC1(C)C [Novobiocin, novobiocin, reference compound]",,,,,,,,,,,,,,,"MIC ([1]; Staphylococcus aureus, MRSA, read-out: MIC MRSA N315): 0.125 µg/mL; MIC ([2]; Staphylococcus aureus, MRSA): 0.25 µg/mL; MIC ([3]; Staphylococcus aureus, MRSA, read-out: MIC MRSA OM481): 0.25 µg/mL; MIC ([4]; Staphylococcus aureus, MRSA, read-out: MIC MRSA OM584): 0.25 µg/mL; MIC ([5]; Staphylococcus aureus, 209P / MSSA, read-out: MIC MSSA 209P): 0.125 µg/mL; MIC ([6]; Staphylococcus aureus, VISA, read-out: MIC VISA Mu50): 8 µg/mL; MIC ([7]; read-out: MIC (Gram-nagative) PAO1): 8 µg/mL; MIC (Escherichia coli K-12; K12, MIC after 24 h, read-out: MIC (Gram-nagative) K-12): 8 µg/mL"
"CC(=O)OC[C@H]1O[C@@H](Oc2c(-c3ccc(O)c(O)c3)oc3cc(O)cc(O)c3c2=O)[C@H](OC(C)=O)[C@@H](OC(C)=O)[C@H]1OC(C)=O [Compound 12, 2-(3′,4′-Dihydroxyphenyl)-5,7-dihydroxy-3-β-D-tetraacetylgalactosyl-4H-chromen-4-one]",128 µg/mL,>128 µg/mL,128 µg/mL,128 µg/mL,128 µg/mL,128 µg/mL,128 µg/mL,64 µg/mL,64 µg/mL,>128 µg/mL,>128 µg/mL,,,,
"O=C(OC[C@H]1O[C@@H](Oc2c(-c3ccc(O)c(O)c3)oc3cc(O)cc(O)c3c2=O)[C@H](OC(=O)c2ccc(F)cc2)[C@@H](O)[C@H]1O)c1ccc(F)cc1 [Compound 14c, 2-(3′,4′-Dihydroxyphenyl)-5,7-dihydroxy-3-β-D-[2″,6″-di-O-(4-fluorobenzoyl)]galactosyl-4H-chromen-4-one]",8 µg/mL,8 µg/mL,2 µg/mL,2 µg/mL,4 µg/mL,4 µg/mL,2 µg/mL,4 µg/mL,4 µg/mL,>128 µg/mL,>128 µg/mL,0.38 µM,7.02 µM,0.52 µM,
"CCOc1ccc(CCC(=O)OC[C@H]2O[C@@H](Oc3c(-c4ccc(O)c(O)c4)oc4cc(O)cc(O)c4c3=O)[C@H](OC(=O)CCc3ccc(OCC)cc3)[C@@H](O)[C@H]2O)cc1 [Compound 14g, 2-(3′,4′-Dihydroxyphenyl)-5,7-dihydroxy-3-β-D-{2″,6″-di-O-[3′″-(4-ethoxyphenylpropanoyl)]}galactosyl-4H-chromen-4-one]",2 µg/mL,4 µg/mL,1 µg/mL,1 µg/mL,2 µg/mL,8 µg/mL,1 µg/mL,2 µg/mL,2 µg/mL,>128 µg/mL,>128 µg/mL,5.39 µM,> 12 µM,2.99 µM,
"Cc1ccc(CCC(=O)OC[C@H]2O[C@@H](Oc3c(-c4ccc(O)c(O)c4)oc4cc(O)cc(O)c4c3=O)[C@H](OC(=O)CCc3ccc(C)cc3)[C@@H](O)[C@H]2O)cc1 [Compound 14h, 2-(3′,4′-Dihydroxyphenyl)-5,7-dihydroxy-3-β-D-{2″,6″-di-O-[3′″-(4-methylphenylpropanoyl)]}galactosyl-4H-chromen-4-one]",0.25 µg/mL,1 µg/mL,0.25 µg/mL,0.25 µg/mL,0.25 µg/mL,0.25 µg/mL,0.5 µg/mL,0.5 µg/mL,0.5 µg/mL,>128 µg/mL,>128 µg/mL,2.09 µM,7.46 µM,1.49 µM,
penicillin [reference compound],,,,,,0.5 µg/mL,,,,,,,,,
"CC(=O)OC[C@H]1O[C@@H](Oc2cc(O)c3c(=O)c(O[C@@H]4O[C@H](COC(C)=O)[C@H](OC(C)=O)[C@H](OC(C)=O)[C@H]4OC(C)=O)c(-c4ccc(O)c(O)c4)oc3c2)[C@H](OC(C)=O)[C@@H](OC(C)=O)[C@H]1OC(C)=O [Compound 5, 2-(3′,4′Dihydroxyphenyl)-5-hydroxy-3,7-di-β-D-octaacetylgalactosyl-4H-chromen-4-one]",64 µg/mL,128 µg/mL,32 µg/mL,32 µg/mL,64 µg/mL,64 µg/mL,64 µg/mL,32 µg/mL,32 µg/mL,>128 µg/mL,>128 µg/mL,,,,
